{"source": "patent US11103489B2", "about": "“Drug for preventing or treating inflammatory bowel disease” (NATIONAL UNIVERSITY CORPORATION OKAYAMA UNIVERSITY, priority 2015, dated 2021)", "key": {"[1]": {"tested_on": "DSS colitis model mice", "experiment": "DSS (2% aqueous solution) colitis model mice, drug efficacy and side effects (1)", "type": "in vivo, C57BL/6 mice", "description": "(§1) 1. Six-week old (body weight: 20 g) male C57BL/6 mice were purchased and acclimated for 5 to 7 days.\n(§2) 2. An average weight was mated between groups having 5 to 6 animals.\n(§3) 3. A DSS untreated group (normal) had free access to mineral water filtered through a […] membrane filter. A DSS […] group (vehicle and drug group) had free access to mineral water containing 2% dextran sulfate sodium (DSS) filtered through a […] membrane filter for 6 days and then mineral water filtered through a 0.22 μM membrane filter.\n(§4) 4. After initiation of free access to DSS-containing water, a body weight was measured every day and then an evaluated drug was orally administered.\n(§5) 6. An orally administered solution was prepared by dissolving the drug in ethanol to a final concentration of 1% and suspending the solution in a 0.5% solution of carboxymethylcellulose (CMC).\n(§6) 7. The drug was administered for 11 days, and the next day, a mouse was euthanized followed by blood collection and dissection. A large intestine and a spleen were isolated. A large intestine length was measured and photographs of the large intestine and the spleen were taken. A section of the large intestine was taken and photographed.\n8. The collected blood was heparinized to give plasma, which was used for determining a blood triglyceride (TG)."}, "[2]": {"experiment": "Measurement of a blood concentration of a drug after oral administration", "type": "in vivo, ICR mice", "details": "single oral dose of 3 mg/kg; at any time (0, 1, 3, 6 h); plasma", "description": "1. Six-week old male ICR mice (body weight: 15 to 25 g) were fasted from the evening of the day before the experiment, and a compound solution prepared in [2] below at a volume of 10 mL/kg was orally administered via a stomach tube. At 0, 1, 3, and 6 hours after the administration, the animals were anesthetized with ether, and incised the abdomen to collect blood from a large vein. The blood was transferred into a heparinized tube and centrifuged at 5000 rpm for 5 minutes, to collect 100 μL of plasma. Each treated group had five mice.\n2. A dose of the compound was 30, 3, 0.3 mg/kg per an animal. A dosage form of the compound was prepared by dissolving it in ethanol to a final concentration of 1% and suspending the solution in a 0.5% solution of carboxymethylcellulose (CMC).\n3. To 100 μL of the plasma were added 100 μL of an ammonium acetate buffer (prepared by adding acetic acid to 5 mM of ammonium acetate and adjusting a pH to 5), and then 1 mL of ethyl acetate. The mixture was vortexed for 30 min, allowed to stand at room temperature for 10 min and centrifuged for 30 sec to remove 800 μL of a supernatant, which was then concentrated by a centrifugal evaporator. The residue was stored at −20° C.\n4. […] Then, for 20 μL of the sample, a compound concentration was determined by HPLC or LCMS. […]"}, "[3]": {"experiment": "Measurement of a drug concentration in feces", "type": "in vivo, ICR mice", "details": "for concentration in feces: oral gavage", "description": "1. For each treated group, four six-week old male ICR mice (body weight: 35 to 40 g) were used.\n2. An orally-administered solution was prepared by dissolving it in ethanol to a final concentration of 1% and suspending the solution in a 0.5% solution of carboxymethylcellulose (CMC).\n3. Each mouse was housed in a cage and had free access to feed and water.\n4. After a body weight was measured at 10 a.m., the animal was gavaged with an evaluated drug via a feeding tube.\n5. From the next day, feces in each cage were collected for 3 days.\n6. Hundred milligrams of the feces were dried under vacuum at 40° C. and pulverized in a mortar. Then, 1.5 mL of HPLC-grade methanol was added, followed by ultrasonic extraction for 20 min.\n7. After the extraction, the mixture was centrifuged at 4° C. and 1,500×g for 20 min.\n8. After the centrifugation, 1 mL of the supernatant was filtered through a syringe filter and poured into a 2 mL Eppendorf tube.\n9. […] The concentration was converted to a concentration per 100 mg of feces.\n10. Since extraction with 1.5 mL of methanol was conducted assuming that 100 mg of the above feces corresponded to 100 μL, a concentration in feces was estimated by multiplying the concentration in methanol determined by LC/MS by […]."}, "[4]": {"experiment": "Measurement of a drug concentration in a large intestine", "type": "in vivo, ICR mice", "details": "the next day after 3 day administration", "description": "1. The next day of the last medication (day 3 of medication), a mouse used in Example 2 was euthanized with ether and then a large intestine was excised.\n2. Faces were removed from the removed large intestine and the inside of the large intestine was washed with PBS. Excess water was removed with Kimwipes.\n3. About 200 mg of the above large intestine was precisely placed in a 2 mL Eppendorf tube.\n4. To the Eppendorf tube was added 800 μL of HPLC-grade methanol, and the mixture was pulverized by a homogenizer. Methanol was further added such that the total volume of methanol added became five times as much as the volume of the large intestine.\n5. The mixture was ultrasonic-extracted for 20 min.\n6. After the extraction, the extract was centrifuged at 4° C. and 1,500×g for 20 min.\n7. After the centrifugation, about 1 mL of the supernatant was filtered through a syringe filter and poured into a 2 mL Eppendorf tube.\n9. Since extraction with […] of methanol was conducted assuming that 200 mg of the above […] corresponded to 200 μL, a concentration in a large intestine was estimated by multiplying the concentration in methanol determined by LC/MS by 5."}, "[5]": {"tested_on": "DSS colitis model mice", "experiment": "DSS (3% aqueous solution) colitis model mice, drug efficacy and side effects (2)", "type": "in vivo, C57BL/6 mice", "details": "3% DSS", "description": "as §1, §2\n3. A DSS untreated group (normal) had free access to mineral water filtered through a […] membrane filter. […]\nas §4, §5, §6"}, "[6]": {"tested_on": "DSS colitis model mice", "experiment": "DSS (2% aqueous solution) colitis model mice, drug efficacy and side effects (3)", "type": "in vivo, C57BL/6 mice", "details": "2% DSS", "description": "as §1, §2, §3, §4, §5, §6"}, "[7]": {"details": "cited from earlier work"}, "[8]": {"tested_on": "Raw264.7 cells", "experiment": "Inhibitory effect on LPS-stimulated NO production (Griess assay)", "details": "LPS 100 ng/mL; for LPS-stimulated NO production: 48 hours; for NO-production inhibitory effect in combination with RU486 (GR antagonist): combined with 1 μM of RU486"}, "[9]": {"tested_on": "RXR", "details": "cited from earlier work"}, "[10]": {"details": "2% DSS, oral 100 mg/kg/day, 11 days"}, "[11]": {"details": "2% DSS, repeated oral dosing at 10 mg/kg/day, in comparison with bexarotene"}}, "note": "Entries after “also recorded” stand apart in the source; their conditions may differ.", "data": [{"smiles": "Nc1ccc(O)c(C(=O)O)c1", "note": "[5-Aminosalicylic acid, 5-aminosalicylic acid, reference compound]", "values": [{"measurement": "improvement in body weight reduction", "setting": "[1]; [10]", "result": "did not contribute to improvement in body weight reduction"}, {"measurement": "recovery of a large intestine length", "setting": "[1]; [10]", "result": "did not contribute"}]}, {"smiles": "CCN(c1ccc(C(C)C)c(OCC(C)C)c1)c1ccc(C(=O)O)cn1", "note": "[NEt-3IB]", "values": [{"measurement": "blood concentration", "setting": "[2]", "result": "< 0.1", "unit": "µM"}, {"measurement": "increase in the concentration in feces by repeated administration", "setting": "[3]; 3 day oral administration", "result": "increase in the concentration by repeated administration was not found"}, {"measurement": "concentration in feces", "setting": "[3]; Day 1", "result": "40 ± 6", "unit": "µM"}, {"measurement": "concentration in feces", "setting": "[3]; Day 2", "result": "33 ± 4", "unit": "µM"}, {"measurement": "concentration in feces", "setting": "[3]; Day 3", "result": "22 ± 1", "unit": "µM"}, {"measurement": "concentration in a large intestine", "setting": "[4]", "result": "0.0027 ± 0.0003", "unit": "µM"}, {"measurement": "improvement in body weight reduction", "setting": "[1]; [11]", "result": "prominent improvement in body weight reduction"}, {"measurement": "recovery of a large intestine length", "setting": "[1]; [11]", "result": "recovery of a large intestine length"}, {"measurement": "blood triglyceride (TG)", "setting": "[1]; 2% DSS, repeated oral dosing, compared with bexarotene", "result": "inhibited increase in blood TG; also recorded: increase in a blood triglyceride by the agent was reduced"}, {"measurement": "anti-inflammatory effect on DSS enteritis", "setting": "[1]; repetitive oral administration, 1 mg/kg/day", "result": "prominent anti-inflammatory effect"}, {"measurement": "inhibition of body weight reduction", "setting": "[5]; oral 10 mg/kg/day", "result": "prominent inhibition of body weight reduction"}, {"measurement": "recovery of a large intestine length", "setting": "[5]; oral 10 mg/kg/day", "result": "recovery of a large intestine length"}, {"measurement": "weight change", "setting": "[6]; oral 10 mg/kg/day", "result": "inhibited body weight reduction"}, {"measurement": "absorption in oral administration", "setting": "[7]; reported", "result": "poorly absorbed"}, {"measurement": "enlarged liver or increase in triglyceride", "setting": "[7]; reportedly, in contrast to a conventional RXR full agonist", "result": "does not cause an enlarged liver or increase in triglyceride"}, {"measurement": "LPS-stimulated NO production", "setting": "[8]", "result": "inhibited"}, {"measurement": "NO-production inhibitory effect in combination with RU486 (GR antagonist)", "setting": "[8]", "result": "not inhibited"}]}, {"smiles": "CCN(c1ccc(C(C)C)c(OCCOC)c1)c1ccc(C(=O)O)cn1", "note": "[NEt-3ME]", "values": [{"measurement": "effect relative to NEt-3IB", "setting": "[6]; at a dose three times as much as NEt-3IB (30 vs 10 mg/kg/day)", "result": "comparable to NEt-3IB"}, {"measurement": "weight change", "setting": "[6]; oral 30 mg/kg/day", "result": "inhibited body weight reduction"}, {"measurement": "RXR receptor activation potency relative to NEt-3IB", "setting": "[9]", "result": "less receptor activation potency than NEt-3IB"}]}, {"smiles": "C[C@]12C=CC(=O)C=C1CC[C@@H]1[C@@H]2[C@@H](O)C[C@@]2(C)[C@H]1CC[C@]2(O)C(=O)CO", "note": "[Prednisolone, prednisolone, reference compound]", "values": [{"measurement": "anti-inflammatory effect", "setting": "[5]; oral administration at 10 mg/kg/day", "result": "did not exhibit anti-inflammatory effect"}, {"measurement": "LPS-stimulated NO production", "setting": "[8]", "result": "inhibited"}, {"measurement": "NO-production inhibitory effect in combination with RU486 (GR antagonist)", "setting": "[8]", "result": "inhibited by combination use of RU486"}]}, {"smiles": "O=C(O)c1cc(/N=N/c2ccc(S(=O)(=O)Nc3ccccn3)cc2)ccc1O", "note": "[SASP, salazosulfapyridine, reference compound]", "values": [{"measurement": "weight change, improvement effect compared with a vehicle", "setting": "[6]; oral 200 mg×2/kg/day", "result": "did not exhibit improvement effect"}]}]}
